In series [1] the test system is TMD8. In words: Induction of cell cycle arrest in human TMD8 cells assessed as accumulation of cells at S phase at 0.25 uM incubated for 24 hrs by PI staining based flow cytometry analysis (reference value: 39.0%). In kind it is functional. (Flow cytometry measures light scatter and fluorescence of single cells or particles in a stream.)
Series [2] addresses T1, DNA (cytosine-5)-methyltransferase 1 (Homo sapiens, UniProt P26358). Kind of series: Inhibition of DNMT1 (unknown origin) at 5 uM preincubated for 15 mins followed by substrate and [3H-SAM] addition and measured after 60 mins by microbeta analysis relative to control. The note with it: time 75.0 min.
Series [3] is described as follows: Downregulation of FAS methylation level in human DOHH-2 cells at 100 nM measured after 6 days by PCR analysis relative to control. In kind it is functional. The settings on record: time 6 day.
Series [4] has as its system DOHH-2. Kind of series: Induction of apoptosis in human DOHH-2 cells assessed as late apoptotic cells at 1 uM measured after 48 hrs by annexin-V/FITC and PI staining based flow cytometry analysis (reference value: 3.66%). It counts as functional.
Series [5] concerns TMD8. Kind of series: Induction of cell cycle arrest in human TMD8 cells assessed as accumulation of cells at S phase at 1.0 uM incubated for 24 hrs by PI staining based flow cytometry analysis (reference value: 39.0%). In kind it is functional.
Series [6] in a line: Antitumor activity against human TMD8 cells harbouring […] xenografted in mouse model assessed as body weight change at 10 mg/kg, iv administered three times a week in presence of chidamide relative to control. In kind it is functional. For orientation: Xenograft models place foreign cells or tissue in a host animal.
Series [7] concerns the target T2, DNA (cytosine-5)-methyltransferase 3A (Homo sapiens, UniProt Q9Y6K1). In words: Inhibition of DNMT3A (unknown origin) preincubated for 15 mins followed by substrate and [3H-SAM] addition and measured after 60 mins by microbeta analysis.
Series [8] can be described thus: Toxicity in mouse assessed as effect on weight gain at 10 mg/kg, iv administered three times a week. It counts as organism-based. The note with it: in vivo.
Series [9] concerns TMD8. In words: Induction of apoptosis in human TMD8 cells assessed as early apoptotic cells measured after 48 hrs by annexin-V/FITC and PI staining based flow cytometry analysis. It counts as functional, cell-based. The settings on record: dose 1-10 µM.
In series [10] the test system is TMD8. Kind of series: Induction of apoptosis in human TMD8 cells assessed as late apoptotic cells at 1 uM measured after 48 hrs by annexin-V/FITC and PI staining based flow cytometry analysis (reference value: 5.13%). It counts as functional.
For series [11], the target named is T1, DNA (cytosine-5)-methyltransferase 1. In words: Inhibition of DNMT1 in human DOHH-2 cells assessed as inhibition of H3K9 methylation level at 1 uM incubated for 48 hrs by Western blot analysis. In kind it is cell-based.
The test system of series [12] is TMD8. In words: Induction of apoptosis in human TMD8 cells assessed as early apoptotic cells at 2.5 uM measured after 48 hrs by annexin-V/FITC and PI staining based flow cytometry analysis (reference value: 9.15%). In kind it is functional.
For series [13], the system named is TMD8. In words: Induction of apoptosis in human TMD8 cells assessed as early apoptotic cells at 1 uM measured after 48 hrs by annexin-V/FITC and PI staining based flow cytometry analysis (reference value: 9.15%). It counts as functional.
For series [14], the system named is DOHH-2. Kind of series: Induction of cell cycle arrest in human DOHH-2 cells assessed as accumulation of cells at G0-G1 phase at 0.5 uM incubated for 24 hrs by PI staining based flow cytometry analysis (reference value: 27.1%). It counts as functional.
The nature of series [15]: Subacute toxicity in Balb/C mouse assessed as effect on hemoglobin at 30 mg/kg, iv administered three times in a week for 2 weeks. The note with it: in vivo, 336 h. In kind it is organism-based.
The subject of series [16] is MDA-MB-231. In words: Antiproliferative activity against human MDA-MB-231 cells assessed as inhibition of cell viability measured after 72 hrs by MTT assay. In kind it is functional, cell-based. The settings on record: MDA-MB-231, 72 h. (In general: Tetrazolium dyes change colour on reduction, which living cells bring about.)
For series [17], the system named is A549. Kind of series: Antiproliferative activity against human A549 cells assessed as inhibition of cell viability measured after 72 hrs by MTT assay. It counts as functional, cell-based. The settings on record: A549, 72 h.
For series [18], the target named is T1, DNA (cytosine-5)-methyltransferase 1. Kind of series: Inhibition of DNMT1 (unknown origin) preincubated for 15 mins followed by substrate and [3H-SAM] addition and measured after 60 mins by microbeta analysis.
In series [19] the target is T3, Histone-lysine N-methyltransferase EHMT2 (Homo sapiens) (UniProt Q96KQ7).
T3 sequence (whole entry): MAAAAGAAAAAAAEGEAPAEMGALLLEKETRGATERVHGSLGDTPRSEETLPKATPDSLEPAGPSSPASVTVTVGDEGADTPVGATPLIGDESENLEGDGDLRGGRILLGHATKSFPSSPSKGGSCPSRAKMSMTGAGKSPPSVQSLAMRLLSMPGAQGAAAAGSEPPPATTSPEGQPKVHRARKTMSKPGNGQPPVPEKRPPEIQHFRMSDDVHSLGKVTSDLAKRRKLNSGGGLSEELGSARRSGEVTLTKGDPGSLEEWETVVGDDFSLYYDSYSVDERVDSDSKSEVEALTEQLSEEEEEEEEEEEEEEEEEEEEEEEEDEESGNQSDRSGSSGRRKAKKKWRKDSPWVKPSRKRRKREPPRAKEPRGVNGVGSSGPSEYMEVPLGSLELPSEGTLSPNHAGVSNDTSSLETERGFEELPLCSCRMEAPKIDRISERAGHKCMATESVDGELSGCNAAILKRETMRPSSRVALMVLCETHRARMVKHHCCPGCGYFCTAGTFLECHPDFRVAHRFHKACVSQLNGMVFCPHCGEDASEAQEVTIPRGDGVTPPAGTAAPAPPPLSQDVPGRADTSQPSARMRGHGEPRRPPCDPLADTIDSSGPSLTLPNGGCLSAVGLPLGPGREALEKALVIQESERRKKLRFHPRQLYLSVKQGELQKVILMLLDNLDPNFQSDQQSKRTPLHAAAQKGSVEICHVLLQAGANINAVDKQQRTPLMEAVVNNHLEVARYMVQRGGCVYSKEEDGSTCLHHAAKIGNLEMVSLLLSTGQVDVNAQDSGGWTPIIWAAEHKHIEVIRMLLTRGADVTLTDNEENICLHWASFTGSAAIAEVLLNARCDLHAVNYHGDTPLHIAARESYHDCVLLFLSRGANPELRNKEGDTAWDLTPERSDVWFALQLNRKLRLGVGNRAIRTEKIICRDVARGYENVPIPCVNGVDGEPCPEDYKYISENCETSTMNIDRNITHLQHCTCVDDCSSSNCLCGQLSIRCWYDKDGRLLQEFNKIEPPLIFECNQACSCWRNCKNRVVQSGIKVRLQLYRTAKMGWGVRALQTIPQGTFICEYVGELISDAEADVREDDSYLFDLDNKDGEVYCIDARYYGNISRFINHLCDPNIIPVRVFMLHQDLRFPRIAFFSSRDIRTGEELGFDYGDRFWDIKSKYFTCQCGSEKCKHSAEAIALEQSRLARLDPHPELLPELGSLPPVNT
Kind of series: Inhibition of G9a (unknown origin) at 5 uM preincubated for 15 mins followed by substrate and [3H-SAM] addition and measured after 60 mins by microbeta analysis relative to control. The settings on record: time 75.0 min.

For series [20], the target named is T2, DNA (cytosine-5)-methyltransferase 3A. In words: Inhibition of DNMT3A (unknown origin) at 5 uM preincubated for 15 mins followed by substrate and [3H-SAM] addition and measured after 60 mins by microbeta analysis relative to control. The note with it: time 75.0 min.
In series [21] the test system is DOHH-2. In words: Induction of apoptosis in human DOHH-2 cells assessed as late apoptotic cells at 5 uM measured after 48 hrs by annexin-V/FITC and PI staining based flow cytometry analysis (reference value: 3.66%). It counts as functional.
The nature of series [22]: Volume of distribution at steady state in Sprague-Dawley rat at 10 mg/kg, po measured upto 24 hrs by LC/MS/MS analysis. It counts as ADME, organism-based. The note with it: in vivo.

Broadly, the inhibition is the share of the control response that was lost under treatment. The IC50 is the concentration needed to halve the response being measured.

Activity calls are given as the source filed them. No cut-off for these calls is given here.

T1 sequence (P26358 whole entry): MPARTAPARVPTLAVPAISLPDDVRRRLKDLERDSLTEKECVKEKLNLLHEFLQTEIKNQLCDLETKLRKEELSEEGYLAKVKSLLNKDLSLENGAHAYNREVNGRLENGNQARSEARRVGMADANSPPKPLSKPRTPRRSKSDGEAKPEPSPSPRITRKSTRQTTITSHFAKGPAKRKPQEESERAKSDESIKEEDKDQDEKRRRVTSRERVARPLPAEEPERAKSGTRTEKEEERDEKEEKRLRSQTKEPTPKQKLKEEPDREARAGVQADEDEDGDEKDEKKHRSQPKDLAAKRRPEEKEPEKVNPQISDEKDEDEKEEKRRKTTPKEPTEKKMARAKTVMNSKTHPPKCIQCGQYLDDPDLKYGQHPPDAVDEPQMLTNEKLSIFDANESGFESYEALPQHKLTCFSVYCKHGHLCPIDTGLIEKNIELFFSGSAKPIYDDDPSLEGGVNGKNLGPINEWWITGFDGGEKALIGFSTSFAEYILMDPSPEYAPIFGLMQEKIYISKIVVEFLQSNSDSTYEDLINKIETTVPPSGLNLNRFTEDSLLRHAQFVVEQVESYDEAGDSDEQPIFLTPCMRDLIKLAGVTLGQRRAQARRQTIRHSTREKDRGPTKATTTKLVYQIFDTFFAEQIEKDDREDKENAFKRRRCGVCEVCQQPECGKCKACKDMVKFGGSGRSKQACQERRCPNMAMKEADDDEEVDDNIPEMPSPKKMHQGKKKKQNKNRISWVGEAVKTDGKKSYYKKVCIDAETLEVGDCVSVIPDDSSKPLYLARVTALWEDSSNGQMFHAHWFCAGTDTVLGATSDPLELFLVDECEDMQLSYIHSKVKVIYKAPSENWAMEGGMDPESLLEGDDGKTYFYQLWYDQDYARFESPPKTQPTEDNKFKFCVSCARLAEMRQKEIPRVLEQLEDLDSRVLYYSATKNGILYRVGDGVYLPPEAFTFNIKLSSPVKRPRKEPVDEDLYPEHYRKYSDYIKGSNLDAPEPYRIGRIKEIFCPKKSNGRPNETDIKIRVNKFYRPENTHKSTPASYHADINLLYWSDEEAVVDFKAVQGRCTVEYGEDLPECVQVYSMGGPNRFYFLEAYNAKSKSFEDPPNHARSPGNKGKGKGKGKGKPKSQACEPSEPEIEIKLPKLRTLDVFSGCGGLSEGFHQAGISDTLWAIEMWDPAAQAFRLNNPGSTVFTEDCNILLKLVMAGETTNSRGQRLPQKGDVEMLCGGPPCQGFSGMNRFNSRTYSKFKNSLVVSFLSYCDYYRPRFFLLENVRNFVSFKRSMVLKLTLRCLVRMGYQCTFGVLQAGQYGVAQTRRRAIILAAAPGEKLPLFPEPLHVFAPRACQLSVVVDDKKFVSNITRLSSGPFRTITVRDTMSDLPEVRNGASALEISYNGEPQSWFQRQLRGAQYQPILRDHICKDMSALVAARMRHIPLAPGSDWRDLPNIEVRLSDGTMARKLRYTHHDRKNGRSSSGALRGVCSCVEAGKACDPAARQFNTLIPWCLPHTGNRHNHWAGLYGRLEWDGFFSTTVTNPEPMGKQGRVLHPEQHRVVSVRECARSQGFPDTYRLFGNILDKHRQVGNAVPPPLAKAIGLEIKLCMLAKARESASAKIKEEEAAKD
T2 sequence (Q9Y6K1 whole entry, looked up): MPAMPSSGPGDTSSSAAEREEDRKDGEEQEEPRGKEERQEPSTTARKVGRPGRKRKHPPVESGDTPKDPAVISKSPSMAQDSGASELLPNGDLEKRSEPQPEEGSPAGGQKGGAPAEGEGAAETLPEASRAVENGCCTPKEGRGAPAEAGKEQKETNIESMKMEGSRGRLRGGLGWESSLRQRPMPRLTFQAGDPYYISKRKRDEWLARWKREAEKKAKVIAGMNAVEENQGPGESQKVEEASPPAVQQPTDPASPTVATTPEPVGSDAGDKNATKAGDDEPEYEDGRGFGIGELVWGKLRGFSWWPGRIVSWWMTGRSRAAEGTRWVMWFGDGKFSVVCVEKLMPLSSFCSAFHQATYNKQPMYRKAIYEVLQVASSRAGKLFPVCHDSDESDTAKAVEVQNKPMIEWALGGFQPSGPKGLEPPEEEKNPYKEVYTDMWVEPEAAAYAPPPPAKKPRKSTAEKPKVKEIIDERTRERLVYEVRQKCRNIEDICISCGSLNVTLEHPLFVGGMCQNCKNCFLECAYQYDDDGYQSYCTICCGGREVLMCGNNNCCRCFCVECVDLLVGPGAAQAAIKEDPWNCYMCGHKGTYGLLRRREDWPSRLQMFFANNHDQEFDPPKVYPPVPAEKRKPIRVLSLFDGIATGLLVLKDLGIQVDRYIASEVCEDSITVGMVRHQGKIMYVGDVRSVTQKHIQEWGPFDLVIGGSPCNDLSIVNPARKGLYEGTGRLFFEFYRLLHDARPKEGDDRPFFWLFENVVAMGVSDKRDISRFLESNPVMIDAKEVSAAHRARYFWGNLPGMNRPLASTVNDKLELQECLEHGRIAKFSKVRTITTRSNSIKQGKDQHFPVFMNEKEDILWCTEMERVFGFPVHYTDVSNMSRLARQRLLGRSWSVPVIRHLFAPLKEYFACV

For the molecule `CN1CCC(Nc2nc(-c3ccnc(F)c3)nc3c2ccn3CCCN2CCCC2)CC1`, the Activity in series [1] is reported as 37.8%; in series [3], 54.2%; in series [4] it was 13.6%; in series [5], 29.3%; in series [6], 1.1%; in series [8], “Non-toxic”. The Activity entry is “Dose-dependent-effect” in [9]; 6.88% in series [10]; 23% in series [12]; 15.7% in [13]; 39.7% in series [14]; “Non-toxic” in [15]. The Activity in [21] is 34.7%. Besides, the inhibition in series [2] turned out to be 75%; in series [19], 0.3%; in [20] it was 11%. Moreover, the IC50 in series [7] came out at 14.4 µM; in series [16] it was 3.91 µM; in series [17] it was 720 nM; in series [18], 2420 nM. Moreover, the inhibition result in series [11] is “Active”. For the same molecule, the Vdss in series [22] was found to be 574.7 L/kg.

Source of the values: ChEMBL document CHEMBL6153174, “Design and Synthesis of Novel Deazapurine DNMT 1 Inhibitors with In Vivo Efficacy in DLBCL” (J Med Chem, 2025).
